Source: ChEMBL document CHEMBL1142196, “Leishmania donovani polyamine biosynthetic enzyme overproducers as tools to investigate the mode of action of cytotoxic polyamine analogs” (Antimicrob Agents Chemother, 2007)
Active and inactive are the calls of the source. The calls are words filed in the database; no cut-off is given here.

Assays:
Leishmania donovani [1] = assay: Growth of Leishmania donovani DI700 promastigotes at 100 uM relative to control
Leishmania donovani [2] = assay: Antiproliferative activity against Leishmania donovani DI700 promastigotes; type: functional, organism-based
Leishmania donovani [3] = assay: Antiproliferative activity against Leishmania donovani DI700 promastigotes in presence of 100 uM putrescine; type: functional, organism-based
Leishmania donovani [4] = assay: Antiproliferative activity against Leishmania donovani DI700 promastigotes in presence of 100 uM spermidine; type: functional, organism-based
Leishmania donovani [5] = assay: Antiproliferative activity against Leishmania donovani DI700 promastigotes overproducing ADOMETDC enzyme; type: functional, organism-based
Leishmania donovani [6] = assay: Antiproliferative activity against Leishmania donovani DI700 promastigotes overproducing SPDSYN enzyme; type: functional, organism-based
Leishmania donovani [7] = assay: Antiproliferative activity against Leishmania donovani DI700 promastigotes overproducing ODC enzyme; type: functional, organism-based

Row | Compound | growth, % of control at 100 µM (Leishmania donovani [1]) [%] | Activity (Leishmania donovani [2]) | EC50 (Leishmania donovani [2]) [µM] | EC50 (Leishmania donovani [3]) [µM] | EC50 (Leishmania donovani [4]) [µM] | EC50 (Leishmania donovani [5]) [µM] | EC50 (Leishmania donovani [6]) [µM] | EC50 (Leishmania donovani [7]) [µM]
1 | CCNCCCCNCCCCNCCCCNCCCCNC/C=C/CNCCCCNCCCCNCCCCNCCCCNCC | 62.4 | inactive |  |  |  |  |  | 
2 | CCNCCCCNCCCCNCCCCNCCCCNCC1CC1CNCCCCNCCCCNCCCCNCCCCNCC (stereo not given) | 73 | inactive |  |  |  |  |  | 
3 | CCNCCCCNCCCCNCCCCNCCCCN(CC)CCCCNCCCCNCCCCNCCCCNCC | 102 | inactive |  |  |  |  |  | 
4 | CCCCCCCCCCCCCC1CCN(CCCN)CCCN(C)CCCCN(C)CCCCN1C (stereo not given) | 98.3 | inactive |  |  |  |  |  | 
5 | CCNCCCCNC/C=C\CNCCCCNCCCCNCC | 96.2 | inactive |  |  |  |  |  | 
6 | CCNCCCCNCCCCNCCCCNCCCCNCCCCNCCCCNCCCCNCCCCNCCCCN(CC)C(=O)CCC1=C(C)c2cc3[nH]c(cc4nc(cc5[nH]c(cc1n2)c(CCC(=O)N(CC)CCCCNCCCCNCCCCNCCCCNCCCCNCCCCNCCCCNCCCCNCCCCNCC)c5C)C(CC)=C4C)c(CC)c3C | 2.2 |  | 0.5 |  |  |  |  | 
7 | CCCCN [BUTYLAMINE] |  |  | 400 | 2000 | > 10000 | 200 | 3300 | 2100
8 | CCNCCCCNCCCCNCCCCNCCCCNCCCCNC/C=C/CNCCCCNCCCCNCCCCNCCCCNCCCCNCC | 7.5 | inactive |  |  |  |  |  | 
9 | CCNCCCCNCCCCNCCCCNCCCCNC/C=C\CNCCCCNCCCCNCCCCNCCCCNCC | 25.7 | inactive |  |  |  |  |  | 
10 | CCCCCCCCCCCCCC1CCN(CCCNC(=O)CCC2=C(C)c3cc4[nH]c(cc5nc(cc6[nH]c(cc2n3)c(CCC(=O)NCCCN2CCCN(C)CCCCN(C)CCCN(C)C(CCCCCCCCCCCCC)CC2)c6C)C(CC)=C5C)c(CC)c4C)CCCN(C)CCCCN(C)CCCN1C (stereo not given) | 1.7 |  | 50 |  |  |  |  | 
11 | CCNCCCCNCC1CC1CNCCCCNCC1CC1CNCCCCNCC (stereo not given) | 118 | inactive |  |  |  |  |  | 
12 | CCNC/C=C\CNC/C=C\CNC/C=C\CNCC | 104 | inactive |  |  |  |  |  | 
13 | CCNC/C=C\CNCCCCNC/C=C\CNCC | 128 | inactive |  |  |  |  |  | 
14 | CCNCCCCNCCCCNCCCCNCCCCNCCCCNCCCCNCCCCNCC | 99.2 | inactive |  |  |  |  |  | 
15 | N=C(N)c1ccc(/N=N/Nc2ccc(C(=N)N)cc2)cc1 [DIMINAZENE] |  |  | 9.5 | 6.1 | 9.7 | 9.7 | 8 | 8.7
16 | CC(/C=N/NC(=N)N)=N\NC(=N)N [MITOGUAZONE] |  |  | 1800 | 2600 | 1800 | 1500 | 1400 | 2200

Row | Compound | growth, % of control at 100 µM (Leishmania donovani [1]) [%] | Activity (Leishmania donovani [2]) | EC50 (Leishmania donovani [2]) [µM] | EC50 (Leishmania donovani [3]) [µM] | EC50 (Leishmania donovani [4]) [µM] | EC50 (Leishmania donovani [5]) [µM] | EC50 (Leishmania donovani [6]) [µM] | EC50 (Leishmania donovani [7]) [µM]
17 | N=C(N)c1ccc(OCCCCCOc2ccc(C(=N)N)cc2)cc1 [PENTAMIDINE] |  |  | 1.9 | 1.9 | 2 | 1.7 | 1.7 | 2.6
18 | CCNCCCCNCCCCNCCCCNCCCCNCCCCNCCCCNCCCCNCCCCNCCCCNCCCCNCCCCNCC | 8.4 |  | 0.4 |  |  |  | 0.5 | 5.5
19 | CCNCCCCNCC1CCC1CNCCCCNCC (stereo not given) | 92.8 | inactive |  |  |  |  |  | 
20 | CCNCCCCNCCCCNCCCCNCCCCNCCCCNCCCCNCCCCNCCCCNCCCCNCCCCNCCCCNCCCCNCCCCNCC | 8.9 |  | 9 |  |  |  |  | 
21 | CCNCCCCNCCCCNCCCCNC/C=C/CNCCCCNCCCCNCCCCNCC | 85.5 | inactive |  |  |  |  |  | 
22 | CCNCCCCNCC1CC1CNCCCCN(CC)C(=O)CCC1=C(C)c2cc3[nH]c(cc4nc(cc5[nH]c(cc1n2)c(CCC(=O)N(CC)CCCCNCC1CC1CNCCCCNCC)c5C)C(CC)=C4C)c(CC)c3C (stereo not given) | 1.3 | inactive |  |  |  |  |  | 
23 | CN(C/C=C\CN)C[C@H]1O[C@@H](n2cnc3c(N)ncnc32)[C@H](O)[C@@H]1O |  |  | 40 | 800 | > 10000 | > 10000 | 200 | 2700
24 | CCNC/C=C\CNCCCCNCCCCNCCCCNCC | 83.2 | inactive |  |  |  |  |  | 
25 | CCNCCCCNCC1CC1CNCCCCNCC (stereo not given) | 81.4 | inactive |  |  |  |  |  | 
26 | CCNCCCCNCCCCNCCCCNCCCCNCCCCNCCCCNC/C=C/CNCCCCNCCCCNCCCCNCCCCNCCCCNCCCCNCC | 7.9 |  | 6.5 |  |  |  |  | 
27 | NCCC[C@](N)(C(=O)O)C(F)F [EFLORNITHINE, (S)-] |  |  | 40 | > 1000 | 130 | 30 | 40 | > 1000
28 | CCNCCCCNCCCCNCCCCNCCCCNCCCCNCCCCNCCCCNCCCCNCCCCN(CC)C(=O)CCC1=C(C)c2cc3[nH]c(cc4nc(cc5[nH]c(cc1n2)c(CCC(=O)N(CC)CCCCNCCCCNCCCCNCCCCNCCCCNCCCCNCCCCNCCCCNCCCCNCC)c5C)C(S(=O)(=O)O)=C4C)c(S(=O)(=O)O)c3C | 1.1 |  | 0.7 |  |  |  |  | 
29 | CCNCCCNCC1CC1CNCCCNCC (stereo not given) | 106 | inactive |  |  |  |  |  | 
30 | CCNCCCCNCCCCNCCCCNC/C=C\CNCCCCNCCCCNCCCCNCC | 97.2 | inactive |  |  |  |  |  | 
31 | CCNCCCCNCCCCNCCCCNCCCCNCCCCNCCCCNCCCCNCCCCNCCCCNCC | 62.6 |  | 9 |  |  |  | 50 | 9
